Assays:
Assay in all cases: relative viability (nuclei count vs DMSO), 5 days (fraction); higher = more cells survive
[1] = compound: Clc1ccc(Nc2nnc(Cc3ccncc3)c3ccccc23)cc1 [Vatalanib]
In short: (§1)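 Viability is treated-well nuclei as a fraction of vehicle-well nuclei, reported as the median across plates. Before counting, lung cancer cell lines were kept overnight at 37 °C in 1536-well plates, pinned with five √10-spaced library-drug doses on vehicle-anchored plates, and left 5 days without medium change, then fixed, permeabilised and Hoechst-stained in one step, imaged at 4× and counted by MetaXpress. A plate passed only if control CV was below 25% and at least one doubling occurred.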

[2] = compound: CC(C)S(=O)(=O)C1=CC=CC=C1NC2=NC(=NC(=C2Cl)N)NC3=C(C=C(C=C3)N4CCC(CC4)C(=O)N)OC [HG-5-88-01]
In short: as §1

[3] = compound: CC(C)Oc1cc(Nc2nc(N[C@@H](C)c3ccc(F)cn3)ncc2Cl)n[nH]1 [AZ23]
In short: as §1

[4] = compound: CCCCCCCCCCCC1=C(O)C(=O)C=C(O)C1=O [Embelin]
In short: as §1

[5] = compound: C[C@@H]1CN(CC(=O)Nc2ccc3c(c2)Cc2cccc(-c4cc(=O)cc(N5CCOCC5)o4)c2S3)C[C@H](C)O1
In short: as §1

| Cell Line | relative viability ([1]; 0.04 µM) | relative viability ([1]; 0.1265 µM) | relative viability ([1]; 0.4 µM) | relative viability ([1]; 1.265 µM) | relative viability ([1]; 4 µM) | relative viability ([2]; 0.04 µM) | relative viability ([2]; 0.1265 µM) | relative viability ([2]; 0.4 µM) | relative viability ([2]; 1.265 µM) | relative viability ([2]; 4 µM) | relative viability ([3]; 0.01 µM) | relative viability ([3]; 0.03162 µM) | relative viability ([3]; 0.3162 µM) | relative viability ([4]; 0.08 µM) | relative viability ([4]; 0.8 µM) | relative viability ([4]; 2.53 µM) | relative viability ([4]; 8 µM) | relative viability ([5]; 0.04 µM) | relative viability ([5]; 0.1265 µM) | relative viability ([5]; 0.4 µM) | relative viability ([5]; 4 µM) |
| --- | --- | --- | --- | --- | --- | --- | --- | --- | --- | --- | --- | --- | --- | --- | --- | --- | --- | --- | --- | --- | --- |
| UMC-11 | 1 | 0.953 | 0.954 | 0.984 | 1.03 | 0.887 | 1.02 | 0.843 | 0.943 | 0.807 | 0.954 | 1.01 | 0.968 | 0.987 | 1.07 | 1.02 | 0.974 | 0.969 | 0.938 | 1.01 | 0.865 |
| HCC-44 | 0.951 | 0.905 | 0.943 | 0.963 | 0.97 | 1.04 | 0.972 | 0.914 | 0.927 | 0.567 | 0.999 | 1.06 | 1.01 | 0.886 | 1.01 | 1.01 | 0.869 | 0.934 | 0.976 | 0.919 | 0.923 |
| LK-2 | 0.952 | 0.863 | 0.889 | 1.01 | 0.995 | 0.976 | 0.994 | 0.962 | 0.582 | 0.789 | 0.802 | 1.14 | 0.959 | 1.1 | 1.07 | 1.25 | 0.856 | 0.848 | 0.923 | 0.979 | 1.1 |
| NCI-H2126 | 0.983 | 1 | 1.03 | 0.945 | 0.925 | 0.905 | 0.989 | 0.923 | 0.904 | 0.88 | 1.05 | 1.02 | 0.991 | 1.03 | 0.991 | 1.03 | 0.934 | 1.01 | 0.979 | 1 | 0.909 |
| NCI-H1650 | 1.06 | 0.851 | 0.799 | 0.818 | 0.851 | 0.904 | 0.92 | 0.812 | 0.871 | 0.723 | 0.826 | 1.17 | 1.12 | 0.994 | 1.08 | 0.942 | 0.877 | 0.95 | 0.999 | 0.949 | 0.769 |
| HOP-62 | 0.954 | 0.957 | 1.07 | 0.949 | 1.01 | 1.03 | 1.06 | 0.92 | 1.02 | 1.02 | 1.13 | 1.11 | 1.12 | 1.02 | 1.07 | 1.1 | 0.984 | 0.978 | 0.991 | 0.973 | 0.988 |
| LC-2-ad | 1.02 | 0.861 | 0.793 | 0.963 | 0.948 | 1.08 | 0.998 | 1.01 | 0.948 | 0.802 | 1.17 | 1.04 | 1.02 | 0.986 | 1.14 | 1.09 | 0.95 | 1.07 | 0.969 | 0.993 | 0.903 |
| LOU-NH91 | 0.925 | 0.936 | 0.816 | 0.876 | 0.921 | 0.912 | 0.904 | 0.866 | 0.612 | 0.629 | 0.921 | 1.08 | 1.01 | 1.02 | 1.27 | 0.991 | 0.864 | 0.943 | 0.989 | 0.966 | 0.876 |
| CAL-12T | 0.978 | 0.946 | 0.988 | 0.867 | 0.885 | 0.959 | 1.09 | 0.952 | 0.746 | 0.459 | 0.692 | 1.09 | 0.932 | 1.01 | 1.18 | 0.855 | 0.986 | 1.04 | 1.01 | 1.06 | 0.549 |
| Calu-6 | 1.06 | 0.958 | 1.06 | 0.949 | 0.976 | 1.04 | 0.965 | 0.946 | 0.948 | 0.854 |  | 1.09 | 1.01 | 1.01 | 1.09 | 1.07 | 1.07 | 1.04 | 0.951 | 1.03 | 0.74 |
| NCI-H647 | 1 | 0.943 | 0.933 | 0.916 | 0.85 | 1 | 0.97 | 0.832 | 0.971 | 1.1 | 0.949 | 1.04 | 1.22 | 0.985 | 1.25 | 1.08 | 0.914 | 0.882 | 0.976 | 1 | 0.734 |
| H3255 | 0.921 | 0.926 | 0.841 | 0.781 | 0.978 | 1.04 | 1.05 | 0.838 |  | 0.871 | 0.858 | 1.21 | 0.999 | 0.963 | 1.05 | 0.875 | 1.07 | 0.917 | 0.947 | 0.905 | 0.878 |
| HCC-78 | 0.95 | 0.862 | 0.972 | 0.82 | 0.835 | 0.836 | 0.736 | 0.476 | 0.378 | 0.417 | 0.837 | 1.01 | 0.589 | 1.02 | 1.02 | 0.977 | 1.07 | 0.883 | 0.922 | 0.821 | 0.923 |
| NCI-H596 | 0.97 | 1.15 | 1.06 | 0.954 | 0.912 | 1.01 | 0.933 | 1.04 | 0.994 | 0.576 | 1.07 | 0.915 | 0.962 | 0.981 | 0.986 | 1.16 | 0.732 | 0.947 | 0.982 | 0.783 | 0.885 |
| PC-3 [JPC-3] | 0.974 | 0.984 | 1 | 1.01 | 0.988 | 1.08 | 1.05 | 0.998 | 0.749 | 0.477 | 1.08 | 1.12 | 1.04 | 1.08 | 1.05 | 1.11 | 0.974 | 0.976 | 1.01 | 1.03 | 0.986 |
| NCI-H650 | 1.01 | 0.885 |  | 0.779 | 0.847 | 1.04 | 0.993 | 0.829 | 0.902 | 0.576 | 0.867 | 1.09 | 0.921 | 0.821 | 1.09 | 0.909 | 0.739 | 0.944 | 0.95 | 1.07 | 0.722 |

— the supplement of paper PMC10307832
